# Legend:
# T98G cells [1] = test: Combination cytotoxicity with mitochondrial complex I inhibitors (% cell survival)
# Text: Example 2: Gnetin H In Combination with Mitochondrial Complex I Inhibitors. […] The plus signs above the combination treatment bars indicates the value of % cell survival if the anti-proliferative effect was additive.
# In FIGS. 9 A-B., the plus signs are placed above the combination treatment bars at the % cell survival value if the anti-proliferative effect was additive. […] Both T98G and MDA-MB-231 cells lack functional p53 but B16 are p53 wild type.
# Example 4: Peony Seed extract. […] T98G cells were treated with different concentrations of purified GH (numbers indicate μM) or PSE (numbers indicate μg/ml) alone or in combination with a Paw Paw (PP) extract (2 μg/ml) for 48 hrs (FIG. 12 A). The plus signs are placed above the combination treatment bars at the % cell survival value if the anti-proliferative effect was additive. […] T98G cells were treated with different concentrations of purified GH or PSE in combination with a Paw Paw extract (2 μg/ml) for 48 hrs (FIG. 12 B).
# [2] = test system: T98G human glioblastoma cells; test: Lactic acid accumulation in cell culture medium; format: cell-based; settings: three hour period; for inhibition of lactic acid production (accumulation): different concentrations, FIG. 6, FIG. 7
# Description: Acidification of the cell culture medium occurs because of the enhanced use of glycolysis by transformed cells (and resulting increase in lactic acid production). This led us to investigate whether GH reduced lactic acid levels in the cell culture medium.
# TXNIP protein levels [3] = test: Western blot of TXNIP protein, T98G cell line; format: cell-based, human; settings: FIG. 15, FIG. 17; for TXNIP protein levels, agent alone: GH 8 μM 6 hrs or 3 hrs, 2-DG 25 mM, OXA 25 mM, BPX 25 μM, DCA 25 mM, 6 hr
# Text: (§1) AMPK activation has been previously shown to phosphorylate and cause the degradation of TXNIP during energy stress (13).
# ARRDC4 mRNA = test: Differential gene expression analysis (RNA-Seq) in T98G cells; format: cell-based, human; settings: 2 hours, GH 8 μM, 2-DG 25 mM, Ph 100, minus = reduced, plus = increase, NC = no change
# Text: (§2) GH inhibits expression of TXNIP and ARRDC4 mRNAs. […] Since the transcription factors (MondoA/Mlx complex) regulating the expression of the TXNIP gene is thought to be controlled by intermediates in the upper portion of the glycolytic pathway (12), GH may be negatively impacting this portion of glycolysis. Reduction in the levels of these intermediates by GH would prevent activation of the MondoA/Mlx transcription complex and would result in suppression of TXNIP transcription and TXNIP mRNA levels. Both of these gene products (TXNIP and ARRDC4) are thought to suppress glucose transport by enhancing degradation of glucose transporters (12).
# TXNIP protein levels [4] = test: Western blot of TXNIP protein, MDA-MB-231 cell line; format: cell-based, human; settings: FIG. 16, FIG. 18; for TXNIP protein levels, agent alone: GH 8 μM 6 hrs or 3 hrs, 2-DG 25 mM, OXA 25 mM, BPX 25 μM, DCA 25 mM, 6 hr
# Text: as §1
# B16 cells [5] = test: Lactic acid export (intracellular lactic acid levels); format: cell-based, mouse; settings: 3 hours, FIG. 4
# Description: To prevent the buildup of lactic acid within the cell a family of monocarboxylate transporters (MCT) functions to transport lactic acid out of the cell (10). To determine if GH inhibits lactic acid export from the cell, and in this manner inhibits the accumulation of lactic acid in the cell culture medium, intracellular lactic acid levels were measured. If GH inhibited lactic acid export, treatment of cells with GH would result in the increase in intracellular lactic acid levels. As a positive control the MCT1 inhibitor AZD3965 was used.
# TXNIP mRNA = test: Differential gene expression analysis (RNA-Seq) in T98G cells; format: cell-based, human; settings: 2 hours, GH 8 μM, 2-DG 25 mM, Ph 100, minus = reduced, plus = increase, NC = no change
# Text: as §2
# B16 cells [6] = test: Glucose transport (2-NBDG accumulation); format: cell-based, mouse; settings: B16, treated for one hour followed by 2-NBDG for one hour
# T98G cells [7] = test: Glucose transport (2-NBDG accumulation); format: cell-based, human; settings: treated for one hour followed by 2-NBDG for one hour
# MDA-MB-231 cells = test: Glucose transport (2-NBDG accumulation); format: cell-based, human; settings: MDA-MB-231, treated for one hour followed by 2-NBDG for one hour
# Text: Phloretin, a known glucose transport inhibitor, was used as a positive control. Accumulation of 2-NDGB was inhibited by phloretin by 54% in T98G cells, by 31% in B16 cells and by 74% in MDA-MB-231 cells. The first panel for each cell line represents unstained cells, the second stained with 2-NBDG for one hour, the third treated with GH for one hour followed by 2-NBDG for one hour and the fourth treated with phloretin for one hour followed by 2-NBDG for one hour.
smiles,measurement,setting,value
"Oc1ccc(/C=C/c2cc(O)cc3c2[C@@H](c2cc(O)cc(O)c2)[C@H](c2ccc(O)cc2)O3)cc1 (relative stereo) [Vin, trans-ε viniferin, reference compound]",synergistic cytotoxicity in combination with phenformin (Ph) at 100 μM,T98G cells [1],did not mimic GH activity
same,inhibition of lactic acid production,"[2]; 40 μM, FIG. 6",40%
"O=CC[C@@H](O)[C@H](O)[C@H](O)CO [2-DG, 2-deoxyglucose]","TXNIP protein levels, in combination with Ph",TXNIP protein levels [3],reduction of TXNIP protein levels
same,"TXNIP protein levels, agent alone",TXNIP protein levels [3],increased TXNIP protein levels
same,synergistic cytotoxicity in combination with phenformin (Ph) at 100 μM,T98G cells [1],not synergistically cytotoxic
same,ARRDC4 mRNA fold change,ARRDC4 mRNA,+3 fold
same,"TXNIP protein levels, in combination with Ph",TXNIP protein levels [4],reduction of TXNIP protein levels
same,"TXNIP protein levels, agent alone",TXNIP protein levels [4],increased TXNIP protein levels
"Cc1[nH]nc(C(F)(F)F)c1Cc1sc2c(c1C(=O)N1C[C@](C)(O)CO1)c(=O)n(C)c(=O)n2C(C)C [AZD3965, reference compound]",accumulation of intracellular lactic acid above control values,B16 cells [5],~4 fold
"O=C(O)C(=O)CBr [BPX, 3-bromopyruvate]","TXNIP protein levels, in combination with Ph",TXNIP protein levels [3],reduced TXNIP protein levels
same,"TXNIP protein levels, agent alone",TXNIP protein levels [3],do not substantially reduce TXNIP protein levels
same,"TXNIP protein levels, in combination with Ph",TXNIP protein levels [4],reduced TXNIP protein levels
same,"TXNIP protein levels, agent alone",TXNIP protein levels [4],do not substantially reduce TXNIP protein levels
"CC(=O)N[C@@H](CS)C(=O)O [NAC, n-acetylcysteine]",inhibition of lactic acid production (accumulation),[2],did not inhibit lactic acid production
"[H]/N=C(/N)N/C(=N/[H])NCCc1ccccc1 [Ph, phenformin, reference compound]",TXNIP mRNA fold change,TXNIP mRNA,−2.5 fold
"Oc1ccc(C=Cc2cc(O)cc(O)c2)cc1 [Res, Resveratrol]",inhibition of lactic acid production (accumulation),[2],did not inhibit lactic acid production
"O=C(CCc1ccc(O)cc1)c1c(O)cc(O)cc1O [phloretin, Phloretin, reference compound]",inhibition of accumulation of 2-NBDG,B16 cells [6],31%
same,inhibition of accumulation of 2-NBDG,T98G cells [7],54%
same,inhibition of accumulation of 2-NBDG,MDA-MB-231 cells,74%
